Source: patent US20100227797A1, “USE OF CYCLOLIGNANS FOR THE TREATMENT OF TYPE 2 DIABETES AND AS CONTRACEPTIVES” (AXELAR AB, priority 2006, published 2010)
“And” between values parts separate entries of the source, which are not always exact repeats. Equal values may be shown once. Marks after values point to notes of the source that are not given here.

Columns and labels:
[1] = Assay of blood glucose in mice after one week picropodophyllin treatment; type: in vivo, SCID mice; conditions: 20 mg/kg/12 h i.p.
Experimental: Ten weeks old SCID mice were treated with PPP (20 mg/kg/12 h) intraperitoneally using DMSO as vehicle. Control mice were treated with vehicle only. Three mice were treated in each group. After treatment for 7 days, the mice were sacrificed 4 h after the last injections. Blood samples were taken and the concentration of glucose in the serum was determined by a dry slide technique using Vitros 950 Chemistry System. In this experiment, healthy SCID mice were treated with picropodophyllin by intraperitoneal injections twice daily, the dose being 20 mg/kg/12 h. The control group was treated with the vehicle only (totally per day: 20 μL DMSO). Each group included 3 mice.

[2] = test system: macular degeneration lesions; test: Laser induction of macular degeneration lesions, mouse model; type: in vivo, C57Bl/6 mice; set-up: Area of macular degeneration: scale not given here
Experimental: To induce macular degeneration lesions adult C57Bl/6 mice were anesthetized and three laser spots were placed in fundus flavimaculatus of the choroidea with a krypton red laser (614 nm, […], 0.05 second, 200 mW). The mice were then treated with PPP (20 mg/kg/12 h) intraperitoneally using DMSO as vehicle for two weeks. Control mice were treated with vehicle only. Twenty mice were treated in each group. Two weeks after the laser treatment, the animals were perfused with 3% FITC-conjugated high-molecular-weight dextran, sacrificed and choroidal flat mounts were prepared. Flat-mounts were examined with fluorescence microscopy Axioskop microscope. Macular degeneration lesions were identified as FITC-perfused vessels. Image-Pro Plus software was used to measure the area of each CNV lesion. Data were recorded as area of macular degeneration lesions (μm^2). Macular degeneration is the leading cause of vision loss. Macular degeneration lesions were induced in 40 adult C57Bl/6 mice by laser. Twenty animals received intraperitoneal (i.p.) injections of picropodophyllin (PPP; 20 mg/kg/12 h) for 2 weeks. Controls received i.p. injections of vehicle. Two weeks after the laser treatment the animals were sacrificed and choroidal flat mounts were prepared. Flat-mounts were examined with fluorescence microscopy. Image-Pro Plus software was used to measure the area of each CNV lesion.

[3] = test system: ovulation; test: Effect on ovulation in a mouse model; type: in vivo; conditions: female mice
Experimental: Female mice were treated with picropodophyllin (PPP; 20 mg/kg/12 h, given intrapritoneally) on days −1 and 0 of mating. The vaginal plug was checked on the next morning. Six animals from each group were sacrificed 4 days after mating. The organs collected were ovaries, uterus, liver and spleen for biochemical analysis.

[4] = test system: implantation of the embryo; test: Effect on implantation in a mouse model; type: in vivo, mice; conditions: 20 mg/kg/12 h i.p., day 3 to 6 after plug
Experimental: The animals were put for mating and the vaginal plug was checked on the next morning. Six female mice positive for vaginal plug were treated with picropodophyllin (20 mg/kg/12 h, given intraperitoneally) and six with vehicle (controls) from day 3 to 6 after the plug. They were sacrificed on day 9 after ovulation. The organs collected were ovaries, uterus, liver and spleen for biochemical analysis.

SMILES: COc1cc([C@@H]2c3cc4c(cc3[C@H](O)[C@H]3COC(=O)[C@@H]23)OCO4)cc(OC)c1OC [PPP, picropodophyllin]
- Effect on blood glucose levels ([1]; SCID mice, one week, compared to controls): decreased the blood glucose levels
- Glucose level in serum ([1]; individual SCID mice, 7 days, sampled 4 h after last injection, 20 mg/kg): 4.5 mM (2×) and 5.7 mM
- Glucose level in serum, mean ([1]; mean of 3 SCID mice, 7 days, vehicle control mean 7.0): 4.9 mM
- Area of macular degeneration ([2]; mean, C57Bl/6 mice, 20 mg/kg/12 h i.p. for 2 weeks after laser, vehicle mean 2.565): Mean: 1.753 μm^2
- Decrease in macular degeneration lesion area ([2]; versus vehicle, 20 mg/kg/12 h i.p. for 2 weeks, statistically significant): 32%
- Number of mice with positive plug ([3]; 20 mg/kg/12 h i.p. on days -1 and 0 of mating, n = 36, vehicle 3 of 6): n = 0
- Percent ovulated mice ([3]; 20 mg/kg/12 h i.p. on days -1 and 0 of mating, vehicle 50%): 0%
- Inhibition of ovulation ([3]; 20 mg/kg/12 h i.p., P=0.005919, Fishers exact test): did not ovulate at all
- Effect on implantation of the embryo ([4]; no statistical significance): interferes negatively with implantation
- Number of pregnancies ([4]; 6 plug-positive female mice, sacrificed day 9, vehicle 4 of 6, not statistically significant): 2*
